Test systems include A549 NSCLC; BT-549 breast; CCRF-CEM leukemia; HCT-116 colon; LOX IMVI melanoma; RXF 393 renal; T-47D breast; A498 renal; HS 578T breast; SR leukemia.
What all share (test): growth of human tumour cells (NCI), 48 h

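Tested at 5 concentrations; 48 h exposure; 96-well plates; endpoints linearly interpolated, else capped at highest concentration. GI50 = concentration required for 50% inhibition of growth. The concentration for full growth arrest is given as TGI.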 Where a SMILES comes first, the peptide text is derived from it. Bridges are numbered along the chain shown (N, C = ends).

Data on 13 compounds can be found in PubChem BioAssay (NCI).

`Oc1ccccc1/C=N\Nc1ccccc1`: the GI50 in the assay on A549 NSCLC was 3.94 µM; with BT-549 breast, 3.19 µM; with CCRF-CEM leukemia, 533 nM; with HCT-116 colon it was 7.22 µM; in the assay with LOX IMVI melanoma, 725 nM; in the assay on RXF 393 renal it was 19100 nM. Also, the GI50 in the assay on T-47D breast was 3430 nM. Besides, the TGI in the assay on A549 NSCLC is over 100 µM; with BT-549 breast, 25.4 µM; in the assay on CCRF-CEM leukemia it was over 100 µM; in the assay on HCT-116 colon it was over 100 µM; in the assay on LOX IMVI melanoma, 12.5 µM; in the assay with RXF 393 renal, 77.9 µM. The same compound came in with a TGI with T-47D breast of over 100 µM.

In the case of `CCCCNP1(NCCCC)=NP(NCCCC)(NCCCC)=NP(NCCCC)(NCCCC)=NP(NCCCC)(NCCCC)=N1`, the GI50 was 1.93 µM in the assay on A498 renal; 0.593 µM in the assay with A549 NSCLC; 4.08 µM in the assay with BT-549 breast; 313 nM in the assay on CCRF-CEM leukemia; 0.209 µM with HCT-116 colon; 1.43 µM in the assay on HS 578T breast. The results for the GI50 in the assay on LOX IMVI melanoma, in the assay with RXF 393 renal and with T-47D breast were 290 nM, 1970 nM and 260 nM, respectively. Further, the TGI with A498 renal turned out to be 8.01 µM; in the assay with A549 NSCLC, 4.03 µM; with BT-549 breast it was 15.3 µM; in the assay with CCRF-CEM leukemia, 12.3 µM; with HCT-116 colon, 0.81 µM; with HS 578T breast it was 7.71 µM. Further, the values for the TGI with LOX IMVI melanoma, in the assay with RXF 393 renal and in the assay on T-47D breast were 2.11 µM, 10.2 µM and 3.07 µM, respectively.

Turning to `CC1OC(OC2C(O)C(OCCc3ccc(O)c(O)c3)OC(CO)C2OC(=O)/C=C/c2ccc(O)c(O)c2)C(O)C(O)C1O` (stereo not drawn), the GI50 in the assay on A549 NSCLC is over 100 µM; in the assay on HCT-116 colon, over 100 µM; in the assay with HS 578T breast, over 100 µM; in the assay on LOX IMVI melanoma, 18200 nM; in the assay with SR leukemia it was 634 nM; with T-47D breast, over 100000 nM. Moreover, the TGI in the assay on A549 NSCLC was over 100 µM; in the assay on HCT-116 colon, over 100 µM; in the assay on HS 578T breast, over 100 µM; with LOX IMVI melanoma, 36 µM; in the assay with SR leukemia it was over 100 µM; with T-47D breast, over 100 µM.

`Cn1c2ccccc2c2c(=O)n(CCCC(=O)NCCc3cnc[nH]3)c3c(-c4ccccc4)nnn3c21`: the GI50 in the assay on A498 renal was 7.58 µM; in the assay with A549 NSCLC it was 12.8 µM; with CCRF-CEM leukemia, 1510 nM; in the assay on HCT-116 colon, 5.95 µM; in the assay with HS 578T breast, 10.4 µM; in the assay on LOX IMVI melanoma, 11200 nM. The GI50 is 7410 nM in the assay with RXF 393 renal, 4030 nM in the assay with SR leukemia and 10400 nM in the assay on T-47D breast. Besides, the TGI with A498 renal was 15.2 µM; in the assay on A549 NSCLC, 24.2 µM; with CCRF-CEM leukemia it was over 50 µM; in the assay on HCT-116 colon it was 13.8 µM; in the assay on HS 578T breast, 22.6 µM; in the assay on LOX IMVI melanoma, 22.9 µM. For the same compound, the figures for the TGI with RXF 393 renal, in the assay with SR leukemia and with T-47D breast were 18.2 µM, over 50 µM and 25.1 µM, respectively.

With `CCN(CC)CCNc1ccc(N=Nc2cnc3ccccc3c2)c2ccccc12`, the GI50 in the assay with A498 renal is 1.65 µM; in the assay on A549 NSCLC, 1.92 µM; in the assay with CCRF-CEM leukemia, 223 nM; in the assay with HCT-116 colon it was 1.51 µM; in the assay with HS 578T breast it was 2.62 µM; with LOX IMVI melanoma it was 1430 nM. For the same compound, the GI50 in the assay on RXF 393 renal is 1880 nM; with SR leukemia it was 590 nM; with T-47D breast it was 1810 nM. In addition, the TGI worked out at 3.05 µM in the assay with A498 renal; 3.5 µM in the assay on A549 NSCLC; 1.09 µM in the assay on CCRF-CEM leukemia; 2.84 µM with HCT-116 colon; 7.3 µM in the assay on HS 578T breast; 2.77 µM in the assay on LOX IMVI melanoma. Moreover, the TGI in the assay on RXF 393 renal is 4.05 µM; in the assay with SR leukemia it was 2.08 µM; with T-47D breast, 4.08 µM.

In the case of `Cc1nccc2c3ccc(OCc4cn(-c5ccc(Br)cc5)nn4)cc3n(CCCc3ccccc3)c12`, the GI50 in the assay with A498 renal is over 100 µM; with BT-549 breast it was 2.47 µM; in the assay with CCRF-CEM leukemia it was 2970 nM; in the assay on HCT-116 colon, 7.2 µM; with HS 578T breast, 1.31 µM; in the assay on T-47D breast, over 100000 nM. Moreover, the TGI was over 100 µM in the assay with A498 renal; 7.48 µM with BT-549 breast; over 100 µM in the assay with CCRF-CEM leukemia; over 100 µM in the assay on HCT-116 colon; 4.56 µM with HS 578T breast; over 100 µM with T-47D breast.

Take `C=C1C(=O)O[C@H]2[C@H]1CC/C(CNC(=O)C(C)c1ccc(CC(C)C)cc1)=C\CC[C@@]1(C)O[C@@H]21` (stereo partly drawn): the GI50 in the assay on A498 renal is 2.22 µM; with A549 NSCLC it was 2.37 µM; in the assay on BT-549 breast, 1.8 µM; with CCRF-CEM leukemia, 551 nM; with HCT-116 colon, 1.32 µM; in the assay with HS 578T breast, 2.24 µM. For the same compound, the GI50 in the assay with LOX IMVI melanoma was 1450 nM; with RXF 393 renal, 1310 nM; in the assay with T-47D breast, 1780 nM. For the same compound, the TGI in the assay with A498 renal stood at 8.38 µM; in the assay with A549 NSCLC, 6.72 µM; in the assay on BT-549 breast, 4.45 µM; in the assay with CCRF-CEM leukemia, 7.49 µM; in the assay on HCT-116 colon, 2.92 µM; in the assay on HS 578T breast, 7.46 µM. Moreover, the TGI with LOX IMVI melanoma was 2.81 µM; in the assay with RXF 393 renal, 2.61 µM; in the assay on T-47D breast, 4.79 µM.

As to `NS(=O)(=O)c1ccc(-n2nc(-c3ccccc3)cc2-c2cc(O)ccc2O)cc1`, the GI50 was over 100 µM in the assay with A549 NSCLC; over 100 µM with BT-549 breast; over 100000 nM with CCRF-CEM leukemia; 40.8 µM in the assay with HCT-116 colon; over 100 µM with HS 578T breast; 27700 nM in the assay with LOX IMVI melanoma. Besides, the GI50 in the assay on RXF 393 renal and in the assay on T-47D breast was over 100000 nM in each case. For the same compound, the TGI with A549 NSCLC is over 100 µM; in the assay on BT-549 breast, over 100 µM; with CCRF-CEM leukemia, over 100 µM; in the assay on HCT-116 colon it was over 100 µM; in the assay on HS 578T breast it was over 100 µM; in the assay with LOX IMVI melanoma it was 63.2 µM. For the same compound, the TGI in the assay on RXF 393 renal and with T-47D breast was over 100 µM each time.

For the compound `COc1ccc2[nH]cc(C3(c4c[nH]c5ccc(OC)cc45)C(=O)Nc4ccc(Cl)cc43)c2c1`, the GI50 in the assay with A498 renal is 4.94 µM; in the assay on BT-549 breast, 5.08 µM; with CCRF-CEM leukemia, 3670 nM; with HCT-116 colon, 3.63 µM; in the assay with HS 578T breast, 5.38 µM; in the assay on LOX IMVI melanoma, 2160 nM. The GI50 in the assay on RXF 393 renal was 3400 nM; with T-47D breast it was 4930 nM. Besides, the TGI is 18.7 µM with A498 renal; 56.8 µM in the assay on BT-549 breast; over 100 µM in the assay on CCRF-CEM leukemia; 10.7 µM with HCT-116 colon; over 100 µM in the assay with HS 578T breast; 5.33 µM in the assay with LOX IMVI melanoma. Also, the figures for the TGI with RXF 393 renal and in the assay on T-47D breast were 13.6 µM and over 100 µM, respectively.

`CCC(C)C1NC(=O)C(CC(C)C)NC(=O)C(C(C)C)NC(=O)C2CSSCC(NC1=O)C(=O)N2` (stereo not drawn) (cyclo(CCVLI); disulfide 1-2; configuration not given here): the TGI was found to be 0.399 µM in the assay with A549 NSCLC; 0.369 µM in the assay with BT-549 breast; 0.187 µM with HCT-116 colon; 0.271 µM with HS 578T breast; 0.239 µM with LOX IMVI melanoma; 0.182 µM with T-47D breast.

For the compound `CN(C)c1ccc(/C=N/n2c(CCCCc3n[nH]c(=S)n3/N=C/c3ccc(N(C)C)cc3)n[nH]c2=S)cc1`, the GI50 in the assay on A498 renal was over 100 µM; with A549 NSCLC it was over 100 µM; in the assay with CCRF-CEM leukemia, over 100000 nM; in the assay on HCT-116 colon it was over 100 µM; in the assay with HS 578T breast, 73.8 µM; with LOX IMVI melanoma it was over 100000 nM. Moreover, the GI50 in the assay on RXF 393 renal was over 100000 nM; in the assay with SR leukemia it was over 100000 nM; with T-47D breast, 22 nM. Also, the TGI with A498 renal, in the assay with A549 NSCLC, with CCRF-CEM leukemia, with HCT-116 colon, in the assay with HS 578T breast and with LOX IMVI melanoma was over 100 µM in each case. In addition, the TGI was over 100 µM in the assay on RXF 393 renal, over 100 µM with SR leukemia and 17.3 µM with T-47D breast.

For `COc1ccc(Cl)cc1Nc1nc(C(F)(F)F)ccc1C(=O)N/N=C/c1ccccc1Cl`, the GI50 was 3.44 µM with A498 renal; 3.53 µM in the assay on A549 NSCLC; 1.79 µM with BT-549 breast; 446 nM in the assay with CCRF-CEM leukemia; 2.81 µM with HCT-116 colon; 3.2 µM in the assay on HS 578T breast. Further, the results for the GI50 with LOX IMVI melanoma, with RXF 393 renal and with T-47D breast were 1640 nM, 455 nM and 1710 nM, respectively. Besides, the TGI with A498 renal was 19.5 µM; in the assay on A549 NSCLC, 18.5 µM; in the assay on BT-549 breast, 8.82 µM; in the assay with CCRF-CEM leukemia it was 2.79 µM; in the assay with HCT-116 colon, over 100 µM; in the assay on HS 578T breast, 40.7 µM. Also, the TGI was determined as 12.8 µM in the assay with LOX IMVI melanoma, 3.06 µM in the assay on RXF 393 renal and 7.68 µM with T-47D breast.

With `O=C(O)C1C2C=CC(O2)C1C(=O)NCc1ccncc1` (stereo not drawn), the TGI in the assay on A498 renal, in the assay on A549 NSCLC, with CCRF-CEM leukemia, in the assay on HCT-116 colon, in the assay with HS 578T breast and in the assay on LOX IMVI melanoma was over 100 µM each time. Further, the TGI in the assay with RXF 393 renal, in the assay on SR leukemia and in the assay with T-47D breast was over 100 µM each time.
